From patent US7947854B2, “Bis-cationic compounds and use thereof” (The University of Sydney, priority 2003, dated 2011)
Like-named read-outs stand apart in the source and are kept apart here.

How the values were obtained:
[1] = molecular target: T1, Porcine pancreatic phospholipase A2 (Sus scrofa, UniProt P00592); experiment: Pancreatic phospholipase assay; type: biochemical; settings: read-out: ppPLA2, percentage inhibition of activity
T1 construct: purchased Sigma, St. Louis MO, USA
Description: Pancreatic phospholipase assay. Porcine pancreatic phospholipase A2 suspension in 3.2M ammonium sulfate (2.9 mg protein/mL, Sigma St.Louis Mo., USA) was used. One part of well mixed enzyme suspension was added to 4 parts of buffer (10 mM Tris/HCl, pH 8.2; 10 mM CaCl2. Activity and inhibition by test compounds was then measured by the radiometric method described in Example 2 for fungal PLB activity. However, 25 μL enzyme solution was used, and the reaction time was 1 hour. These conditions result in ˜60% substrate conversion in the inhibitor-free control.

[2] = system: Cryptococcus neoformans ATCC 90112; experiment: Antifungal susceptibility testing, microdilution MIC; type: cell-based; settings: Cryptococcus neoformans, ATCC90112
Description: (§1) Antifungal susceptibility testing. The antifingal activity of the compounds was measured by a standard microdilution method. […] The fungal strains tested included Cryptococcus neoformans H99, Cryptococcus neoformans ATCC 90112 and Candida albicans ATCC 10231. All tests were performed in duplicate.
(§2) A range of cationic compounds were assayed for antifungal activity in a standardised serial dilution sensitivity test against C. neoformans ([…]) and C. Albicans (ATCC 10231).

[3] = system: Candida albicans ATCC 10231; experiment: as above; type: cell-based; settings: Candida albicans, ATCC10231
Description: as §1, §2

[4] = system: secreted phospholipase B (PLB activity); experiment: Radiometric assay, secreted PLB activity; type: biochemical, Cryptococcus neoformans H99; settings: for PLB, percentage inhibition of activity: Secretory Cryptococcal H99 Phospholipase
Description: Fungal isolates and media. […] Isolate H99 was kindly supplied by Dr. Gary Cox (Duke University Medical Center, Durham, N.C., USA), and subcultured onto Sabouraud dextrose agar (SDA) at 30° C.
Preparation of supernatants containing secreted phospholipase activities. Isolate H99 was grown to confluence on SDA in 16 cm diameter Petri dishes for 72 h at 30° C. in air. Cells scraped from 10-20 dishes were washed sequentially with isotonic saline and imidazole buffer (10 mM imidazole, 2 mM CaCl2, 2 mM Mg Cl2, 56 mM D-Glucose, made up in isotonic saline, pH 5.5), resuspended in a volume of this buffer of about 10% of the cell volume, and incubated for 24 h at 37° C. The cell-free supernatant was separated by centrifugation as previously described and stored at −70° C.
Radiometric assay method for phospholipases. Enzyme activities were measured as described previously in a final volume of 125 μL at 37° C. For the determination of secreted PLB activity, carrier dipalmitoyl phosphatidylcholine (DPPC, final concentration 800 μM) and 1,2-di[1-^14C] palmitoyl phosphatidylcholine (20,000 dpm) were dried under nitrogen and suspended in 125 mM imidazole acetate buffer (assay buffer, pH 4.0) by sonication using a Branson 450 sonifier. The reaction time was 22 min, using 1 μg total protein and PLB activity was determined by the rate of decrease of the radiolabelled PC substrate, with appearance of the label in free fatty acid. This assay also simultaneously allows for the determination of phospholipase A, C and D activities. These activities were measured by the appearance of radiolabel from PC in Lyso PC, diacylglycerol and phosphatidic acid, respectively.
All reactions were terminated by adding 0.5 mL of chloroform:methanol (2:1 v/v). The reaction products were extracted by the method as disclosed in Bligh, E. C. and W. J. Dyer. 1959 ‘A rapid method of total lipid extraction and purification.’ Can. J. Biochem. Physiol. 37:911-917, separated by TLC and quantified as previously described. In the case of PLC activity, the TLC plates were developed in petroleum ether (BP 60-80° C.): diethyl ether: acetic acid (90:15:1, v/v/v) instead of chloroform:methanol:water (65:25:4, v/v/v).
Preparation of inhibitors and use in assays. The following compounds were tested (for structures, see FIG. 2): compound 1, 1,12-bis(tributylphosphonium)dodecane dibromide (Fluka AG, Buchs, Switzerland); compound 2, 1,10-bis(tributylammonium)-decane dibromide; compound 3, 1,12-bis(tributylammonium)do-decane dibromide (both synthesised in-house); compound 4, 1,10-bis(trimethylammonium)decane dibromide [“decamethonium”] (Sigma, St. Louis Mo., USA). All compounds were prepared as stock solutions of 700 μM in assay buffer containing 5 mM EDTA, which was then diluted serially with buffer to obtain solutions of 70, 7, 0.7 and 0.07 μM. In each assay, 45 μL of these solutions was used, and the final volume of 125 μL was made up of substrate, enzyme and buffer. The radiometric assay was carried out as above. Inhibition was calculated as the percent of substrates (DPPC or Lyso-PC) remaining in the case of PLB and LPL activities, or of DPPC produced, in the case of the LPTA activity. The amounts converted, or produced, in the inhibitor-free control were normalised to 100%, and the inhibition calculated against it. All assays were done in triplicate.
Under these conditions only PLB, LPL and LPTA activities (both secreted and cell-associated) were measured. Initially, compounds deemed to be potential inhibitors were assayed at 25 and 250 μM. Those showing some inhibition were then also assayed at 2.5 and 0.25 μM.

T1 sequence (P00592 23-146): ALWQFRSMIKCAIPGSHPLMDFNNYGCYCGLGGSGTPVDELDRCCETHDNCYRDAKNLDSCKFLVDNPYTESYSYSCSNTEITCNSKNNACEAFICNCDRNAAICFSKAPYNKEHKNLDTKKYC

`CCCC[N+](CCCC)(CCCC)CCCCCCCCCC[N+](CCCC)(CCCC)CCCC` [Compound 2, 1,10-bis(tributylammonium)-decane dibromide] was tested. Which inhibition at 0.25 µM ([1]; 0.25 μM) did it give?
Its inhibition at 0.25 µM is 0%.

And the inhibition at 2.5 µM ([1]; 2.5 μM)?
Its inhibition at 2.5 µM is 0%.

And the inhibition at 25 µM ([1]; 25 μM)?
Its inhibition at 25 µM is 25%.

And the inhibition at 250 µM ([1]; 250 μM)?
The inhibition at 250 µM was 65%.

And the MIC ([2]; Table 6, no visible growth after 72 h at 35° C., read-out: MIC C. neof. ATCC 90112)?
The MIC was 11 µM.

And the MIC ([2]; Table 7, read-out: MIC (μM) Crypto. (ATCC 90112))?
The MIC was 11 µM.

What about the MIC ([3]; Table 6, no visible growth after 48 h at 35° C., read-out: MIC C. albicans ATCC 10231) of the same compound?
The MIC was 88 µM.

And the MIC ([3]; Table 7, read-out: MIC (μM) C. alb. (10231))?
The MIC was 88 µM.

What about the “PLB assay (% inhibition)” value ([4]; 0.25 μM) of the same compound?
Its value is 0%.

What about the “PLB, percentage inhibition of activity” value ([4]; 0.25 μM) of the same compound?
The value was 0%.

What about the “PLB assay (% inhibition)” value ([4]; 2.5 μM) of the same compound?
Its value is 30%.

What about the “PLB, percentage inhibition of activity” value ([4]; 2.5 μM) of the same compound?
The value was 30%.

What about the “PLB assay (% inhibition)” value ([4]; 25 μM) of the same compound?
The value was 80%.

And the “PLB, percentage inhibition of activity” value ([4]; 25 μM)?
The value was 80%.

What about the “PLB assay (% inhibition)” value ([4]; 250 μM) of the same compound?
The value was 90%.

And the “PLB, percentage inhibition of activity” value ([4]; 250 μM)?
The value was 90%.
